According to patent US20150342954A1, “2-BENZYL, 3-(PYRIMIDIN-2-YL) SUBSTITUTED PYRAZOLES USEFUL AS SGC STIMULATORS” (IRONWOOD PHARMACEUTICALS, INC., priority 2011, published 2015):
Like-named read-outs stand apart in the source and are kept apart here.

Legend:
[1] = molecular target: T1, Human soluble guanylate cyclase enzyme (hsGC) (Homo sapiens, UniProt Q02108+Q02153); experiment: Purified human sGC enzyme synergy assay in the presence of 1 μM sodium nitroprusside (SNP); type: biochemical; settings: compound at 30 μM, presence of 1 μM SNP; Table 5A
T1 construct: purchased Enzo Inc. ALX-201-177
T1 sequence (Q02153 1-619): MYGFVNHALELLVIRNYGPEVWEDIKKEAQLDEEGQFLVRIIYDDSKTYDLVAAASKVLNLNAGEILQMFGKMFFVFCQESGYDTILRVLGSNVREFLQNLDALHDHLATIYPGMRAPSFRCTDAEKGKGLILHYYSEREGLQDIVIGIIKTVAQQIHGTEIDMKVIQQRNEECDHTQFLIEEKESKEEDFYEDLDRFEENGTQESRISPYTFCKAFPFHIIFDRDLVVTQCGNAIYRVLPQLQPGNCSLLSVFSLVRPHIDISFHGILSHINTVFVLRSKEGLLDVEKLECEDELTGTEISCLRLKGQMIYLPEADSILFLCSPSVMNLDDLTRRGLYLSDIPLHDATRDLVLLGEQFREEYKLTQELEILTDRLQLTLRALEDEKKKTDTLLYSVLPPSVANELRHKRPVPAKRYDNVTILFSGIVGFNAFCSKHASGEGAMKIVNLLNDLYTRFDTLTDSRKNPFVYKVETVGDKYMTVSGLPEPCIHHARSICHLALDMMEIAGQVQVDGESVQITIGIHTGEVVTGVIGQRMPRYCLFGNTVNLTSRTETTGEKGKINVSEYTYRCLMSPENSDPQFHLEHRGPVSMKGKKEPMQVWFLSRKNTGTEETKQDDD
T1 sequence (Q02108 1-690): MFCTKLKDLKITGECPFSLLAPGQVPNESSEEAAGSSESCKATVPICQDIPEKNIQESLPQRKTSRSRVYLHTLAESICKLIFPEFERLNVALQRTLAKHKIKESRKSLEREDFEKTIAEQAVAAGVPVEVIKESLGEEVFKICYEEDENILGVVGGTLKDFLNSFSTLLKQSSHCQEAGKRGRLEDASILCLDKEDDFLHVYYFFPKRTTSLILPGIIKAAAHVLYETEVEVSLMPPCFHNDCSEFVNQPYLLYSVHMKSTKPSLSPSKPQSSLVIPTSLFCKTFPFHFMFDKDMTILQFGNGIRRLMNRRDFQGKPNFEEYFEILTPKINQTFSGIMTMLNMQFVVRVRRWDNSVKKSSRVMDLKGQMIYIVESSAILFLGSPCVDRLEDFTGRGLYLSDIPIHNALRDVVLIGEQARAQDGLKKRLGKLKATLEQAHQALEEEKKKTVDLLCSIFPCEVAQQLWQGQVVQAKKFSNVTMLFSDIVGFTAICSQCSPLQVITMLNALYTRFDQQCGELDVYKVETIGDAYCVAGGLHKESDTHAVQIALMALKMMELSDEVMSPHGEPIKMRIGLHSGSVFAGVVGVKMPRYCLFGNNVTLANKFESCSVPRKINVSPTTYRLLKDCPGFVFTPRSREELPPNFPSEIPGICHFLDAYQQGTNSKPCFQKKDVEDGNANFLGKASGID
Method: (§1) Human soluble guanylate cyclase enzyme (hsGC) obtained from Enzo Inc. (P/N: ALX-201-177) was used to evaluate the activity of test compounds. The assay reactions contained 0.1 M Tris (pH 8.0), 0.5 mg/mL BSA (pH 8.0), 2 mM DTT, 2 mM MgCl2, 300 μM GTP, 1 mM 3-isobutyl-1-methylxanthine (IBMX) and 5 ng human soluble guanylate cyclase enzyme. Test compounds in DMSO were then added (2 μL, 10 or 30 μM final concentration) and incubated (200 μL, 96-well plate format) at 37° C. for 30 minutes. The controls were carried out using 2 μL DMSO. After the 30 minute incubation, the reaction was stopped with the addition of 200 μl of cold methanol. The plate was then centrifuged at 3,200 rpm for 10 minutes at room temperature. Supernatants (200 μL) were collected and transferred to a new 96 well plate for analysis.
(§2) An 8 point cGMP (Sigma-Aldrich P/N: G6129) standard curve was prepared in assay buffer ranging from 0.156-20 μM. Samples for the cGMP standard curve were then diluted with an equal volume of methanol resulting in final cGMP concentrations of 0.078-10 μM.
(§3) The cGMP standard curve was generated using GraphPad Prism Software.
(§4) Calculations: Specific Activity was determined by the amount of cGMP formed (nmoles) per mg of sGC per min. Enzyme “fold-change” was calculated by dividing Specific Activity for test compounds by Specific Activity of DMSO controls.
Biological Measurement by the Purified Human sGC Enzyme Synergy Performed in the Presence of Sodium Nitroprusside (SNP), a Nitric Oxide Donor
Enzyme assays were performed as described above, but was done in the absence or presence of 1 μM sodium nitroprusside (SNP).

[2] = molecular target: T1, Human soluble guanylate cyclase enzyme (hsGC); experiment: Purified human sGC enzyme activity assay (without SNP); type: biochemical; settings: compound at 30 μM, absence of SNP; fold over DMSO control; Table 5A
Method: Biological Activity Measurements by the Purified Human sGC Enzyme Activity Assay
as §1, §2, §3, §4

[3] = molecular target: T2, soluble guanylate cyclase (sGC) (Homo sapiens, UniProt Q02108+Q02153); experiment: sGC-HEK-cGMP assay (run with SNP incubation); type: cell-based; settings: for Emax: 10 μM SNP, 100% = 30 μM BAY 41-2272 with 10 μM SNP, read-out: HEK assay Emax-unconstrained (Percent); for HEK MEC-10: concentration that would elicit 10% of the Emax in the presence of 10 μM SNP; for EC50: in the presence of 10 μM SNP
T2 construct: endogenously expressing soluble guanylate cyclase (sGC); endogenous in cells; host or cells: HEK293
T2 sequence (Q02153 1-619): T1 sequence (Q02153 1-619)
T2 sequence (Q02108 1-690): T1 sequence (Q02108 1-690)
Method: Biological Activity Measurement by the sGC-HEK-cGMP Assay
(Assay Run with SNP Incubation)
Human embryonic kidney cells (HEK293), endogenously expressing soluble guanylate cyclase (sGC), were used to evaluate the activity of test compounds. Compounds stimulating the sGC receptor should cause an increase in the intracellular concentration of cGMP. HEK 293 cells were seeded in Dulbecco's Modification of Eagle's Medium supplemented with fetal bovine serum (10% final) and L-glutamine (2 mM final) in a 2004 volume at a density of 1×10^5 cells/well in a poly-D-lysine coated 96 well flat bottom plate and grown overnight at 37° C. Medium was aspirated and cells were washed with 1× Hank's Buffered Saline Salt Solution (2004). Cells were then incubated for 15 minutes at 37° C. with 0.5 mM 3-isobutyl-1-methylxanthine (2004). Test article and sodium nitroprusside were then added to the assay mixture (24 each) and incubated at 37° C. for 10 minutes. After the 10 minute incubation, the assay mixture was aspirated and 0.1M HCl (2004) was added to the cells. The plate was incubated at 4° C. for 30 minutes in the 0.1M HCl to stop the reaction and lysed the cells. The plates were then centrifuged at 1,200 g for 5 minutes at room temperature. Supernatants were collected and transferred to a new flat bottom 96 well plate for analysis. Vehicle controls were carried out using DMSO (1%). A known sGC stimulator, BAY 41-2272, was used as the positive control. Samples were diluted with an equal volume of 1 M Ammonium Acetate (pH 7) to neutralize samples for better chromatography. A 2×cGMP standard curve was prepared in 0.1 M HCl and then diluted with an equal volume of 1 M Ammonium Acetate, with the following final concentrations in nM: 1024, 512, 256, 128, 64, 32, 16, 8, 4, 2, 1.cGMP concentrations were determined from each sample using the LC/MS conditions (Table 2 below) and calculated standard curve. EC50 values were calculated from concentration-response curves generated with GraphPad Prism Software.

[4] = Table 3B, top of concentration-response curve not fitted to 100%
[5] = Table 3E, read-out: HEK assay EC50
[6] = top of concentration-response curve not fitted to 100%, Table 3E, read-out: HEK assay EC50-unconstrained
[7] = Table 3C, top of concentration-response curve not fitted to 100%
[8] = Table 3F, read-out: HEK assay EC50
[9] = top of concentration-response curve not fitted to 100%, Table 3F, read-out: HEK assay EC50-unconstrained

SMILES | Emax [3, 7] | HEK MEC-10 ([3]; Table 3F) | EC50 [3, 8] | EC50 [3, 9] | other results
O=c1[nH]c(-c2cc(-c3ccon3)n(Cc3ccncc3F)n2)ncc1F [Compound 26] | – | – | – | – | Enzyme Activity (increase at 30 μM with SNP) [1]: A (no increase to <2 fold increase); Enzyme Activity (increase at 30 μM without SNP) [2]: A (no increase to <2 fold increase)
COc1nc(-c2cc(-c3ccon3)n(Cc3ccccc3F)n2)ncc1F [Compound 28] | – | – | – | – | Enzyme Activity (increase at 30 μM with SNP) [1]: D (10 or <20 fold increase); Emax ([3]; Table 3A, top of concentration-response curve not fitted to 100%): 60 to 80%; HEK MEC-10 ([3]; Table 3D): B (0.01 to <0.1 μM); Enzyme Activity (increase at 30 μM without SNP) [2]: C (5 to <10 fold increase)
Fc1cccnc1Cn1nc(-c2ncccn2)cc1-c1ccon1 [Compound 57] | – | – | – | – | Enzyme Activity (increase at 30 μM with SNP) [1]: A (no increase to <2 fold increase); Enzyme Activity (increase at 30 μM without SNP) [2]: A (no increase to <2 fold increase)
Fc1ncccc1Cn1nc(-c2ncccn2)cc1-c1ccon1 [Compound 66] | – | – | – | – | Enzyme Activity (increase at 30 μM with SNP) [1]: A (no increase to <2 fold increase); Enzyme Activity (increase at 30 μM without SNP) [2]: A (no increase to <2 fold increase)
Oc1nc(-c2cc(-c3ccon3)n(Cc3cccc(Cl)c3F)n2)ncc1Cl [Compound 82] | – | – | – | – | Emax [3, 4]: 40 to 60%; HEK MEC-10 ([3]; Table 3E): B (0.01 to <0.1 μM); EC50 [3, 5]: 40 to 60 µM; EC50 [3, 6]: 0.01 to 0.5 µM
Nc1nc(-c2cc(-c3ccon3)n(Cc3ccccc3F)n2)ncc1N1CC(C(F)(F)F)OC1=O (stereo not shown) [Compound 83, 3-(4-amino-2-(1-(2-fluorobenzyl)-5-(isoxazol-3-yl)-1H-pyrazol-3-yl)pyrimidin-5-yl)-5-(trifluoromethyl)oxazolidin-2-one] | – | – | – | – | EC50 [3, 5]: 60 to 100 µM; EC50 [3, 6]: 0.5 to 1 µM
Oc1nc(-c2cc(-c3ccco3)n(Cc3ccccc3F)n2)ncc1F [Compound 90] | – | – | – | – | Emax [3, 4]: 40 to 60%; EC50 [3, 6]: 0.01 to 0.5 µM
Nc1nc(-c2cc(-c3ccon3)n(Cc3ccccc3F)n2)ncc1NC(=O)C(Cl)(Cl)Cl [Compound 98] | 60 to 80% | B (0.01 to <0.1 μM) | < 20 µM | 0.01 to 0.5 µM | –
Nc1nc(-c2cc(-c3ccon3)n(Cc3cccc(F)c3F)n2)ncc1NC(=O)c1ccc(C(F)(F)F)cc1 [Compound 101] | 80 to 100% | A (0.001 to <0.01 μM) | < 20 µM | 0.01 to 0.5 µM | –
CN(C)Cc1ccc(C(=O)Nc2cnc(-c3cc(-c4ccon4)n(Cc4cccc(F)c4F)n3)nc2N)cc1 [Compound 102] | 60 to 80% | C (0.1 to <1 μM) | < 20 µM | 1 to 5 µM | –
Nc1nc(-c2cc(-c3ccon3)n(Cc3cccc(F)c3F)n2)ncc1NC(=O)c1ccc[nH]1 [Compound 103] | 80 to 100% | A (0.001 to <0.01 μM) | < 20 µM | 0.01 to 0.5 µM | –
CN(C)Cc1cccc(C(=O)Nc2cnc(-c3cc(-c4ccon4)n(Cc4cccc(F)c4F)n3)nc2N)c1 [Compound 104] | 40 to 60% | C (0.1 to <1 μM) | < 20 µM | 1 to 5 µM | –
Nc1nc(-c2cc(-c3ccon3)n(Cc3cccc(F)c3F)n2)ncc1NC(=O)c1cc[nH]c1 [Compound 105] | 60 to 80% | B (0.01 to <0.1 μM) | < 20 µM | 0.5 to 1 µM | –
Nc1nc(-c2cc(-c3ccon3)n(Cc3cccc(F)c3F)n2)ncc1NC(=O)c1ccn[nH]1 [Compound 106] | 80 to 100% | D (1 to <10 μM) | < 20 µM | 5 to 10 µM | –
Nc1nc(-c2cc(-c3ccon3)n(Cc3cccc(F)c3F)n2)ncc1NC(=O)C12CC3CC(CC(O)(C3)C1)C2 [Compound 107] | 40 to 60% | C (0.1 to <1 μM) | < 20 µM | 1 to 5 µM | –
Nc1nc(-c2cc(-c3ccon3)n(Cc3ccccc3F)n2)ncc1NC(=O)CCC(F)(F)F [Compound 111] | 60 to 80% | B (0.01 to <0.1 μM) | < 20 µM | 0.01 to 0.5 µM | –
N#Cc1nc(-c2cc(-c3ccon3)n(Cc3ccccc3F)n2)ncc1F [Compound 115] | 20 to 40% | D (1 to <10 μM) | 40 to 60 µM | 1 to 5 µM | –
COc1nc(-c2cc(-c3ccon3)n(Cc3ccccc3F)n2)nc(Cl)c1F [Compound 116] | 20 to 40% | D (1 to <10 μM) | 60 to 100 µM | – | –
